For orientation: pKi means the negative decadic logarithm of the Ki, by convention in mol/L. Usually pIC50 stands for the IC50 on a negative log10 scale, so that one unit is a factor of ten.

pIC50, pKi: −log10 of the molar value.

The values below come from ChEMBL document CHEMBL1148683, “Synthesis and monoamine transporter affinity of front bridged tricyclic 3beta-(4'-halo or 4'-methyl)phenyltropanes bearing methylene or carbomethoxymethylene on the bridge to the 2beta-position” (Bioorg Med Chem Lett, 2006).

Series [1] has as its target Sodium-dependent serotonin transporter (Homo sapiens, UniProt P31645). The series can be described thus: Displacement of [3H]citalopram from human SERT transfected in HEK293 cells. The format is cell-based. For orientation: Displacement assays read how much labelled ligand stays bound in the presence of the test substance.
Series [2] concerns the target T1, Sodium-dependent noradrenaline transporter (Homo sapiens, UniProt P23975). As to the kind of experiment: Displacement of [3H]nisoxetine from human NET transfected in HEK293 cells. Format: cell-based.
The target of series [3] is Sodium-dependent dopamine transporter (Homo sapiens, UniProt Q01959). As to the kind of experiment: Displacement of [125I]RTI-55 from human DAT transfected in HEK293 cells. Format: cell-based.
Series [4] concerns the target Monoamine transporters; serotonin & dopamine (Homo sapiens) (UniProt P31645+Q01959). The series can be described thus: Selectivity for human SERT over DAT. The format is protein assay.
The target of series [5] is Serotonin and norepinephrine transporters (SERT/NET) (Homo sapiens) (UniProt P31645+P23975). As to the kind of experiment: Selectivity for human SERT over NET. The format is protein assay.
The subject of series [6] is Rhesus monkey. The series can be described thus: Selective uptake in pons over occipital cortex of iv dosed rhesus monkey after 105 mins by microPET imaging assay. The format is ADME, organism-based, Macaca mulatta. The note with it: in vivo, 1.75 h.
Series [7] concerns Rhesus monkey. The series can be described thus: Selective uptake in putamen over occipital cortex of iv dosed rhesus monkey after 105 mins by microPET imaging assay. The format is ADME, organism-based, Macaca mulatta. The note with it: in vivo, 1.75 h.
In series [8] the test system is Rhesus monkey. The series can be described thus: Selective uptake in medulla over occipital cortex of iv dosed rhesus monkey after 105 mins by microPET imaging assay. The note with it: in vivo, 1.75 h. Format: ADME, organism-based, Macaca mulatta.
The target in series [9] is T1, Sodium-dependent noradrenaline transporter. The series can be described thus: Inhibition of (-)-[3H]NE uptake at NET.
Series [10] relates to Rhesus monkey. As to the kind of experiment: Selective uptake in thalamus over occipital cortex of iv dosed rhesus monkey after 105 mins by microPET imaging assay. Format: ADME, organism-based, Macaca mulatta. The note with it: in vivo, 1.75 h.
The subject of series [11] is Rhesus monkey. As to the kind of experiment: Selective uptake in midbrain over occipital cortex of iv dosed rhesus monkey after 105 mins by microPET imaging assay. Format: ADME, organism-based, Macaca mulatta, Brain. The note with it: in vivo, 1.75 h.
The subject of series [12] is Rhesus monkey. As to the kind of experiment: Selective uptake in cerebellum over occipital cortex of iv dosed rhesus monkey after 25 mins by microPET imaging assay. The format is ADME, organism-based, Macaca mulatta. The note with it: in vivo.
Series [13] relates to Rhesus monkey. The series can be described thus: Selective uptake in caudate over occipital cortex of iv dosed rhesus monkey after 105 mins by microPET imaging assay. The format is ADME, organism-based, Macaca mulatta. The note with it: in vivo, 1.75 h.

Sequence of Sodium-dependent serotonin transporter (P31645 whole entry): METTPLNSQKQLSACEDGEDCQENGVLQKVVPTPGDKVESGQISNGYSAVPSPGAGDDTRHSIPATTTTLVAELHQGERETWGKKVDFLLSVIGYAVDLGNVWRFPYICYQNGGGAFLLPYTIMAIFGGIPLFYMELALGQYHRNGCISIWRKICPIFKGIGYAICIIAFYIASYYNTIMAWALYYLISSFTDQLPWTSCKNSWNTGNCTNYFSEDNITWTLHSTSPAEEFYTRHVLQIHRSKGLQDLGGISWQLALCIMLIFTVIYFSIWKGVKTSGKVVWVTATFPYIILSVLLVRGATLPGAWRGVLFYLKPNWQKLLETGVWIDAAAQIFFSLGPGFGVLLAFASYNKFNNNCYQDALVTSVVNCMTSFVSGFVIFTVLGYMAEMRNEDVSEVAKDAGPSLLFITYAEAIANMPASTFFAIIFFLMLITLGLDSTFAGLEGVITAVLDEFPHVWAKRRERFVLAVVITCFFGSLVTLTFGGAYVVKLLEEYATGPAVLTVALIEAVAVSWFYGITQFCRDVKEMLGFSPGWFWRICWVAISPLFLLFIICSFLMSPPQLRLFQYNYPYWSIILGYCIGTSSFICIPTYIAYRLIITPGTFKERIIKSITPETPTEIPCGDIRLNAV
Sequence of Sodium-dependent dopamine transporter (Q01959 whole entry): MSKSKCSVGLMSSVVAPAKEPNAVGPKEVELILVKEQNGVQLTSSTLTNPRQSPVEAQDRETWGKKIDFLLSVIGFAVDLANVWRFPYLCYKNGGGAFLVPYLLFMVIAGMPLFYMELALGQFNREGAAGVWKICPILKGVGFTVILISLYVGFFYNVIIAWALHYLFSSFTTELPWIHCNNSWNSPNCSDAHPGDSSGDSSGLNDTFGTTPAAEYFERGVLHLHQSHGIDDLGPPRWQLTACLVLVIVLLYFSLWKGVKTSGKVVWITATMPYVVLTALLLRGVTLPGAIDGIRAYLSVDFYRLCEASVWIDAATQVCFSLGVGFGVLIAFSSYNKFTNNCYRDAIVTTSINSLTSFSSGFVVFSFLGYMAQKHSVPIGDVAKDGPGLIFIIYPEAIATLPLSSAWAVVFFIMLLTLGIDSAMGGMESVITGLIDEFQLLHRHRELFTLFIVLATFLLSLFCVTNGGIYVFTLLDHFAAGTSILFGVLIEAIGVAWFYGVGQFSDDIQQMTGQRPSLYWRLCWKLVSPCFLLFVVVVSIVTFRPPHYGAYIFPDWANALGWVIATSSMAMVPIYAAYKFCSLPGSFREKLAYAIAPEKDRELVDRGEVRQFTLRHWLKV
T1 sequence (P23975 whole entry): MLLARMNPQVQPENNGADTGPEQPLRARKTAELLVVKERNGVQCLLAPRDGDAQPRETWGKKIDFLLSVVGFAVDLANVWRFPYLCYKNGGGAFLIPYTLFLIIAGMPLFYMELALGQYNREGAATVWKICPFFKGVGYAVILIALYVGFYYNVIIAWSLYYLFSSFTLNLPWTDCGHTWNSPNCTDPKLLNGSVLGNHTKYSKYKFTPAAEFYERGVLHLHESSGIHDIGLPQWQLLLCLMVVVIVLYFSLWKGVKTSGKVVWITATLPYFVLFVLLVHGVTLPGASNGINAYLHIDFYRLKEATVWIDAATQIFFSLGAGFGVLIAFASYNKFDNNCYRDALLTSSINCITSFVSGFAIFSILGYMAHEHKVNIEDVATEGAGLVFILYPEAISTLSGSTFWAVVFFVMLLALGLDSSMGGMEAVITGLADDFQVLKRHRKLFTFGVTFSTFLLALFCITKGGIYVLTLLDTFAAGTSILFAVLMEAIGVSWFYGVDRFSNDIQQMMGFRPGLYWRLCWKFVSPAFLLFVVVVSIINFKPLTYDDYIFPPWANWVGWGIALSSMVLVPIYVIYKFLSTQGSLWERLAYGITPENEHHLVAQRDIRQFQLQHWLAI
Sequence of Monoamine transporters; serotonin & dopamine (Homo sapiens) (P31645 whole entry, looked up): as the sequence (P31645 whole entry) above
Sequence of Monoamine transporters; serotonin & dopamine (Homo sapiens) (Q01959 whole entry, looked up): as the sequence (Q01959 whole entry) above
Sequence of Serotonin and norepinephrine transporters (SERT/NET) (Homo sapiens) (P23975 whole entry, looked up): as the sequence (P23975 whole entry) above
Sequence of Serotonin and norepinephrine transporters (SERT/NET) (Homo sapiens) (P31645 whole entry, looked up): as the sequence (P31645 whole entry) above

On to `C=C1CN2C3CCC2C1C(c1ccc(Cl)cc1)C3` (stereo unspecified), for which the pKi in series [1] is 9.09; in series [2], 8.32; in [3], 7.91.

For `C=C1CN2C3CCC2C1C(c1ccc(I)cc1)C3` (stereo unspecified), the Selectivity ratio in series [4] turned out to be 94; in [5], 65. Further, the pKi in series [1] is 10.05; in series [2], 8.23; in series [3], 8.07.

Regarding `COC(=O)/C=C1/CN2C3CCC2C1C(c1ccc(Cl)cc1)C3` (stereo unspecified), the figures for the pKi in series [1], in series [2] and in series [3] were 7.73, 7.89 and 8.34, respectively.

Take `C=C1CN2C3CCC2C1C(c1ccc(Br)cc1)C3` (stereo unspecified): the values for the pKi in series [1], in [2] and in [3] were 9.55, 8.53 and 7.38, respectively.

Regarding `C=C1CN2C3CCC2C1C(c1ccc(C)cc1)C3` (stereo unspecified), the figures for the pKi in series [1], in series [2] and in [3] were 8.11, 7.76 and 7.39, respectively. Further, the Ratio was 1.52 in the series on Rhesus monkey [6]; 1.83 with Rhesus monkey [7]; 1.36 with Rhesus monkey [8]; 1.48 in the series on Rhesus monkey [10]; 1.53 in the series with Rhesus monkey [11]; 1.39 with Rhesus monkey [12]. Moreover, the Ratio with Rhesus monkey [13] is listed as 1.47. The same compound had a pIC50 in [9] of 8.66.

`COC(=O)/C=C1/CN2C3CCC2C1C(c1ccc(C)cc1)C3` (stereo unspecified): the negative logarithm of the Ki (pKi) in [1] was 7.01; in [2], 7.59; in series [3], 7.88.

For the compound `COC(=O)/C=C1/CN2C3CCC2C1C(c1ccc(Br)cc1)C3` (stereo unspecified), the pKi is 8.25 in series [1], 7.90 in series [2] and 8.53 in series [3].
